# According to patent US8409825B2, “Method for high-level secretory production of protein” (National Institute of Advanced Industrial Science and …, priority 2007, dated 2013):
# Where two headings read alike, the source gives them in different places.
# What was measured:
# [1] = system: S. cerevisiae ZUO1/YGR285C strain; conditions: control strain
# Protocol: The S. cerevisiae ZUO1/YGR285C strain was sowed in 5 ml of YPAD medium (YPD medium containing 0.04% adenine (Sigma)), and yeast cells resulting from overnight culture at 30° C. and 310 rpm were used.
# ST medium (500 μl) (Yeast Nitrogen Base and Ammonium sulfate medium containing 2% glucose, 0.04% adenine, and 0.3M KCl and lacking uracil and leucine (Sigma)) was applied onto a 96-deep well plate (Greiner, 780271), the transformant was sowed with the use of a toothpick, the top of the plate was sealed with CO2-permeable plate sealers (Greiner, 676051), and culture was carried out at an agitation speed of 310 rpm, an amplitude of 50 mm, at 30° C. for 3 days. Control culture was carried out by applying 1 ml of YPAD medium to a 96-deep well plate (Greiner, 780271). […] The culture solution that had been cultured in ST medium was sowed to a final concentration of 5%, and the top of the plate was sealed with CO2-permeable plate sealers (Greiner, 676051). Thereafter, culture was carried out at an agitation speed of 310 rpm, an amplitude of 50 mm, at 30° C. for 3 days. The culture supernatant was prepared from the culture solution and it was designated as a sample containing an antibody secreted and produced by yeast. […]
# [2] = system: antibody-producing yeast strain (ona02306 strain); conditions: for amount of antibody production: control 0.8 mg/l, FIG. 5
# Protocol: Control culture was carried out at an agitation speed of 310 rpm, an amplitude of 50 mm, at 30° C. for 2 days, 100 μl of 2× YP-P6-GG medium was added, and 100 μl of 2× YP-P6-GG medium was further added on day 3. In the case of culture involving single addition of a rhodanine-3-acetic acid derivative 1c, culture was carried out at an agitation speed of 310 rpm, an amplitude of 50 mm, at 30° C. for 2 days, 100 μl of 2× YP-P6-GG medium was added, and 100 μl of 2× YP-P6-GG medium containing 20 μM of 1c was further added on day 3. In the case of culture involving addition of a rhodanine-3-acetic acid derivative 1c twice, culture was carried out at an agitation speed of 310 rpm, an amplitude of 50 mm, at 30° C. for 2 days, 100 μl of 2× YP-P6-GG medium containing 20 μM of 1c was added, and 100 μl of 2× YP-P6-GG medium containing 20 μM of 1c was further added on day 3.
# Yeast cells were removed from the culture product via centrifugation at 2,700×g and 4° C. for 5 minutes, and the resulting culture supernatant was designated as a sample of secreted antibody. The secreted and produced antibodies were subjected to quantitative assay via sandwich ELISA. TRAIL receptor proteins that were antigens of the anti-TRAIL receptor antibodies were adsorbed on a 96-well plate, the sample of secreted antibody was added, and detection was carried out using a peroxidase-labeled human IgG specific Fc antibody (Peroxidase-labeled affinity purified antibody to human IgG (Fc) (KPL, 04-10-20)) and the ABTS peroxidase substrate (KPL, 50-66-01).
# Western blotting was carried out as follows. After the protein was subjected to SDS-PAGE under reducing and non-reducing conditions, the separated protein was blotted to a PVDF membrane, and the antibody heavy chain and the light chain were detected using Anti-human IgG (γ-chain specific) (Sigma, I-3382) and Goat anti human kappa b&f affinity purified (Bethyl, A-80-115A) as the primary antibodies. Peroxidase conjugated affinity purified anti-goat IgG (H&L) (Rabbit) (Rockland, #605-4313) was used as the secondary antibody. […]
# [3] = system: O. minuta PMT4-deficient strain (ona98808 strain); conditions: 0.25 μM 1c (final concentration), FIG. 26
# Protocol: The antibody-producing strain was cultured in the following manner. With the use of 2× YP-P6-GG medium (the medium was prepared by dissolving 20 g of Difco yeast extract and 40 g of Bacto peptone in 900 ml of pure water, sterilizing the solution via steaming under pressure, and adding 100 ml of separately sterilized 10× phosphate buffer (pH 6.0) (1M KH2PO4, 0.15M (NH4)2SO4, 0.375N KOH), 10 ml of a separately sterilized 50% glucose solution, and 25 ml of separately sterilized 80% glycerine), 800 μl of 2× YP-P6-GG medium was introduced into a 96-deep well plate (Greiner, 780271), the strains were sowed with the use of a toothpick, and the top of the plate was sealed with CO2-permeable plate sealers (Greiner, 676051). […]
# Yeast cells were removed from the culture product via centrifugation at 2,700×g and 4° C. for 5 minutes, and the resulting culture supernatant was designated as a sample of secreted antibody. The secreted and produced antibodies were subjected to quantitative assay via sandwich ELISA. […] After the protein was subjected to SDS-PAGE under reducing and non-reducing conditions, the separated protein was blotted to a PVDF membrane, and the antibody heavy chain and light chain were detected using Anti-human IgG (γ-chain specific) (Sigma, I-3382) and Goat anti human kappa b&f affinity purified (Bethyl, A-80-115A) as the primary antibodies. […]
substance,measurement,setting,value
"5-[[3,4-(1-phenylmethoxy)phenyl]methylene]-4-oxo-2-thioxo-3-thiazolidineacetic acid [rhodanine-3-acetic acid derivative 1c]",increase of amount of antibody secretory production when addition of an O-sugar chain was suppressed,"[1]; 1c final concentration 10 μM, versus control culture",approximately 2.5 times
same,amount of antibody secretory production,"[1]; O-sugar chain addition suppressed (1c final concentration 10 μM), without 1c 3.9 ng/ml, FIG. 14",10 ng/mL
same,"high-molecular-weight antibody heavy chain (Western blot, reducing electrophoresis)","[2]; addition of PMT inhibitors to culture, FIG. 6",decreased
same,amount of antibody production,[2]; addition of PMT inhibitors twice (100 μl medium containing 20 μM 1c on day 2 and day 3),approximately 1.9 mg/l
same,amount of antibody production,[2]; single addition of PMT inhibitors (100 μl medium containing 20 μM 1c on day 3),approximately 1.7 mg/l
same,improvement of the amount of production,[3],approximately 13%
